According to paper PMC12406255, “Engineering Peptide Modulators for T‑Cell Migration by Structural Scaffold Matching” (Journal of Medicinal Chemistry, 2025):
Read-outs that look alike come from different tables or passages of the source. Positions of bridges follow the written chain, without caps; N, C: chain ends. Non-standard residues stand in square brackets, D forms with d. Residues, ends and D or L forms follow the SMILES beside them. Nle = CCCC[C@H](N)C(=O)O

Tests used:
Serum stability assay = assay type: in vitro ADME; settings: human serum of healthy donors, lipids removed by centrifugation, 37 °C, peptide 30-60 μM from 10-fold stock in PBS, followed over 48 h, urea/TFA quench, analytical RP-HPLC peak area vs time 0, one-phase decay fit; mean ± SD, n = 2 (pepitem n = 5); read-out: Serum t 1/2 (converted)
Method: Stability of peptides in human serum was measured similarly to that previously described. In short, fresh blood from healthy donors was collected in serum collection tubes (Clot Activator Tube, Becton Dickinson, Plymouth, United Kingdom, […]) and incubated at 4 °C for 2 h to allow blood clotting. The serum was separated by centrifugation at 1000 × g for 10 min. To remove lipids from the serum, an additional centrifugation step was performed at 15,000 × g for 15 min at 4 °C, after which the serum was used for the stability assays. For this, the serum was prewarmed for 10 min at 37 °C before the addition of the test compounds. Peptides were prepared at a 10-fold concentration in PBS and diluted to a final concentration between 60 and 30 μM with the serum. The serum-peptide reaction mix was incubated at 37 °C, and 40 μL aliquots were taken at the indicated time points. To stop the reaction, samples were mixed with 40 μL of 6 M urea for 10 min on ice, followed by precipitation of serum proteins by the addition of 40 μL of 20% TFA and incubation for at least 10 min on ice. The precipitate was pelleted at 15,000 × g for 15 min, and 90 μL of the supernatant was freeze-dried. The dry material was resuspended in HPLC solvent A (0.1% TFA in ddH2O). Peptide quantification was performed using analytical HPLC. The remaining peptide relative to the starting point (time point 0) was calculated by peak integration to determine the area under the peak at the designated time points and further calculated in comparison to time point 0 min, which was set as 100%. To calculate the half-life of the peptides in human serum, data points were fitted with a one-phase decay equation.

[1] = test system: CD4+ lymphocytes (CD3+, CD4+); assay type: cell-based, human; settings: normalized to untreated control, mean ± SEM of 4-6 experiments
Method: (§1) Transwell migration assays were performed similarly as published previously. HMEC-1 cells were seeded at a density of 75,000 cells per well in transwell inserts. Three days after cell seeding, the medium was changed, and the cells were stimulated with 100 ng/mL TNF-α and 20 ng/mL IFN-γ for 16–18 h. On the day of the assay, cells were washed with migration medium (serum-free RPMI medium supplemented with 0.1% BSA) to remove residual cytokines and starved for at least 1 h at 37 °C in migration medium. PBMC were starved for at least 1.5 h in migration medium before addition to the EC. For S1P and lifitegrast-treated samples, the PBMC were preincubated for at least 1.5 h at 37 °C with the ligands before addition to the EC. Pepitem and other peptides were added onto the EC monolayer and preincubated for 15–30 min at 37 °C before the addition of the PBMC. 200,000 PBMC per well were added directly on top of the EC prestimulated with pepitem or other peptides to reach a final volume of 150 μL in the donor compartments. The receiver compartments of the wells were filled with 600 μL RPMI with 20% FBS. After 4 h of migration at 37 °C, the receiver compartment with the migrated cells was collected. The migrated cells were stained with the indicated antibodies: CD3-APC (clone: OKT3, lot: B400127), CD4-PE (clone: OKT4. lot: B379180), CD8-FITC (clone: HIT8a, lot: B370193) from Biolegend and CD3-VioGreen (clone: REA613, lot: 5240502518), CD45RO-FITC (clone: REA611, lot: 5240502519), CD4-PerCP-Vio700 (clone: REA623, lot: 5240506702), CXCR3 PE-Vio615 (clone: REA232, lot: 5240506722), CD196-APC (clone: REA190, lot: 5240506717), CD8-APC-Vio770 (clone: REA734, lot: 5240303993) and CD45RO-PEVio616 (clone: REA611, lot: 5231102514) from Miltenyi Biotec (Bergisch Gladbach, Germany) and counted using precision counting beads (Biolegend) on a CytoflexS flow cytometer (BeckmanCoulter). Data was analyzed using CytExpert (Version 2.4). T cells were gated as CD3^+ cells, T cell subsets were gated as CD4^+ (CD3^+, CD4^+), CD8^+ (CD3^+, CD8^+), memory CD4^+ (CD3^+, CD4^+, CD45RO^+), memory CD8^+ (CD3^+, CD8^+, CD45RO^+) and Th1 cells (CD3^+, CD4^+, CXCR3^+, CCR6^–).
(§2) Data were analyzed using GraphPad Prism software. EC50 values were calculated by three-parameter nonlinear regression analysis. For this, the data points were normalized to the number of migrated cells in untreated (buffer) control samples (100%), and the regression was fitted with the top constraint to 100 and the slope fixed to 1. Statistical significance is indicated in graphs as n.s. not significant, * p < 0.05; ** p < 0.01; *** p < 0.001. The statistical tests used are indicated in the respective figure captions.

[2] = test system: memory CD4+ cells (CD3+, CD4+, CD45RO+); assay type: cell-based, human; settings: normalized to untreated control, mean ± SEM of 4-6 experiments
Method: as §1, §2

[3] = test system: CD8+ lymphocytes (CD3+, CD8+); assay type: cell-based, human; settings: normalized to untreated control, mean ± SEM of 4-6 experiments
Method: as §1, §2

[4] = test system: memory CD8+ cells (CD3+, CD8+, CD45RO+); assay type: cell-based, human; settings: normalized to untreated control, mean ± SEM of 4-6 experiments
Method: as §1, §2

CD3+ lymphocytes = assay: cells; assay type: cell-based, human; settings: for % Inhibition of cell migration compared to control, CD3+: normalized to untreated control, mean ± SEM of 4-6 experiments
Method: 1 Transwell-based migration assay to study lymphocyte transendothelial migration. (A) The general principle of the transwell migration assay is depicted. Endothelial cells (EC) are seeded in transwell inserts and are incubated for 2 days to form an EC monolayer. On the day before the assay, the ECs are cytokine-stimulated to induce the expression of adhesion molecules. In the migration assay, human peripheral blood mononuclear cells (PBMC) are placed into the donor compartment of the transwell setup. After 4 h of incubation time, the migrated cells are harvested from the receiver compartment, stained with fluorescent antibodies and counted using flow cytometry. (B) PBMCs were preincubated with S1P for 1.5 h and then transferred into the donor compartment on top of the EC monolayer. […] Data are shown as mean ± SD of 3 to 5 independent experiments.
as §1, §2

half-life (Serum stability assay)	Compound	% Inhibition of cell migration compared to control, CD4+ ([1]; 0.1 μM)	% Inhibition of cell migration compared to control, CD4+ ([1]; 1 μM)	% Inhibition of cell migration compared to control, Memory CD4+ ([2]; 0.1 μM)	% Inhibition of cell migration compared to control, Memory CD4+ ([2]; 1 μM)	% Inhibition of cell migration compared to control, CD8+ ([3]; 0.1 μM)	% Inhibition of cell migration compared to control, CD8+ ([3]; 1 μM)	% Inhibition of cell migration compared to control, Memory CD8+ ([4]; 0.1 μM)	% Inhibition of cell migration compared to control, Memory CD8+ ([4]; 1 μM)	% Inhibition of cell migration compared to control, CD3+ (CD3+ lymphocytes; 0.1 μM)	% Inhibition of cell migration compared to control, CD3+ (CD3+ lymphocytes; 1 μM)	effects on T-lymphocyte migration (in words) (CD3+ lymphocytes; two concentrations (0.1 and 1 μM), equal to untreated control)
15.4 ± 12.9 h	CCCC[C@@H]1NC(=O)[C@H](C(C)C)NC(=O)[C@H](CCCCN)NC(=O)[C@@H](NC(=O)[C@H](CCC(N)=O)NC(=O)[C@H](CCC(=O)O)NC(C)=O)CSSC[C@@H](C(=O)N[C@@H](CCC(=O)O)C(=O)N[C@@H](CCCCN)C(N)=O)NC(=O)[C@H](CC(N)=O)NC(=O)[C@H](CC(=O)O)NC(=O)[C@H](CC(C)C)NC(=O)[C@@H]2CSSC[C@H](NC1=O)C(=O)N[C@@H](Cc1ccc(O)cc1)C(=O)N[C@@H](C)C(=O)N[C@@H](CCC(N)=O)C(=O)N[C@@H](CCCNC(=N)N)C(=O)N[C@@H](Cc1c[nH]cn1)C(=O)N[C@@H](CO)C(=O)N[C@@H](CO)C(=O)N1CCC[C@H]1C(=O)N[C@@H](CCC(=O)O)C(=O)N[C@@H](CC(C)C)C(=O)N[C@@H](CC(C)C)C(=O)N[C@@H](CCCNC(=N)N)C(=O)N[C@@H](CCCNC(=N)N)C(=O)N2 [VhTI variant, reference compound] (Ac-EQCKV[Nle]CYAQRHSSPELLRRCLDNCEK-NH2; disulfide 3-25, 7-21)	–7.8 ± 9.4%	–6.7 ± 7.0%	–3.5 ± 2.4%	–11.6 ± 13.2%	1.6 ± 8.5%	–2.8 ± 15.8%	4.7 ± 7.4%	–11.6 ± 7.2%	–3.9 ± 7.0%	–5.2 ± 10.7%	no effects
25.8 ± 9.7 h	CC(=O)N[C@@H](CCC(=O)O)C(=O)N[C@@H](CCC(N)=O)C(=O)N[C@H]1CSSC[C@@H](C(=O)N[C@@H](CCC(=O)O)C(=O)N[C@@H](CCCCN)C(N)=O)NC(=O)[C@H](CC(N)=O)NC(=O)[C@H](CC(=O)O)NC(=O)[C@H](CC(C)C)NC(=O)[C@@H]2CSSC[C@H](NC(=O)[C@H]([C@@H](C)O)NC(=O)[C@H](C(C)C)NC(=O)[C@H](CO)NC1=O)C(=O)N[C@@H](CCC(=O)O)C(=O)N[C@@H](CCC(N)=O)C(=O)NCC(=O)N[C@@H](C)C(=O)N[C@@H](CCC(=O)O)C(=O)N[C@@H](CC(C)C)C(=O)N1CCC[C@H]1C(=O)N[C@@H](CO)C(=O)N[C@@H](CC(N)=O)C(=O)N[C@@H](CCC(=O)O)C(=O)N[C@@H](CCC(=O)O)C(=O)N[C@@H](CCCNC(=N)N)C(=O)N2 [VhTI-pep 6] (Ac-EQCSVTCEQGAELPSNEERCLDNCEK-NH2; disulfide 3-24, 7-20)	19.5 ± 9.9%	14.6 ± 8.7%	24.6 ± 11.6%	14.7 ± 7.6%	28.0 ± 8.2%	1.6 ± 7.8%	23.2 ± 4.3%	0.6 ± 6.1%	27.0 ± 9.7%	14.9 ± 11.6%	
> 48 h	CCCC[C@@H]1NC(=O)[C@H](C(C)C)NC(=O)[C@H](CCCCN)NC(=O)[C@@H](NC(=O)[C@H](CCC(N)=O)NC(=O)[C@H](CCC(=O)O)NC(C)=O)CSSC[C@@H](C(=O)N[C@@H](CCC(=O)O)C(=O)N[C@@H](CCCCN)C(N)=O)NC(=O)[C@H](CC(N)=O)NC(=O)[C@H](CC(=O)O)NC(=O)[C@H](CC(C)C)NC(=O)[C@@H]2CSSC[C@H](NC1=O)C(=O)N[C@@H](Cc1ccc(O)cc1)C(=O)N[C@@H](CCC(=O)O)C(=O)N[C@@H](CCC(N)=O)C(=O)NCC(=O)N[C@@H](C)C(=O)N[C@@H](CC(C)C)C(=O)N[C@@H](CO)C(=O)N1CCC[C@H]1C(=O)N[C@@H](CCC(=O)O)C(=O)N[C@@H](CC(C)C)C(=O)N[C@@H](CC(C)C)C(=O)N[C@@H](CCCNC(=N)N)C(=O)N[C@@H](CCCNC(=N)N)C(=O)N2 [VhTI-pep 5] (Ac-EQCKV[Nle]CYEQGALSPELLRRCLDNCEK-NH2; disulfide 3-25, 7-21)	16.2 ± 7.7%	33.5 ± 5.7%	11.5 ± 13.6%	28.6 ± 8.8%	20.8 ± 6.8%	24.8 ± 12.8%	4.7 ± 10.1%	14.0 ± 13.4%	18.0 ± 6.2%	28.4 ± 7.4%	
